Assay results reported in BigSolDB 2.1.

CC[C@H](CC[C@@H](C)[C@H]1CC[C@H]2[C@@H]3CC=C4C[C@@H](O)CC[C@]4(C)[C@H]3CC[C@]12C)C(C)C
solubility (mole fraction)
Details | in acetone | in ethanol | in ethyl acetate | in methanol | in n-hexane
278.15 K | 0.00274 | 0.0013 | 0.00447 | 0.000136 | 0.000862
283.15 K | 0.00322 | 0.00158 | 0.0053 | 0.000167 | 0.00103
288.15 K | 0.00379 | 0.0019 | 0.00627 | 0.000205 | 0.00123
293.15 K | 0.00446 | 0.00229 | 0.00738 | 0.000248 | 0.00147
298.15 K | 0.00525 | 0.00274 | 0.00872 | 0.000299 | 0.00173
303.15 K | 0.00616 | 0.00328 | 0.0103 | 0.000357 | 0.00205
308.15 K | 0.00724 | 0.00389 | 0.012 | 0.000427 | 0.0024
313.15 K | 0.00852 | 0.0046 | 0.014 | 0.000509 | 0.0028
318.15 K | 0.01 | 0.0054 | 0.0163 | 0.000606 | 0.00326
323.15 K | 0.0118 | 0.00632 | 0.019 | 0.00072 | 0.00377
328.15 K | 0.0139 | 0.00738 | – | 0.000855 | 0.00436
333.15 K | – | 0.00856 | – | – | 0.005
